Laboratory results from PubChem BioAssay (NCI).
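Cells were grown in 96-well plates and exposed to each compound for 48 hours at five concentrations; endpoints were interpolated linearly between bracketing concentrations, or set to the highest concentration if not reached. TGI: total growth inhibition.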

How the values were obtained:
Test in all cases: DTP human tumour cell line panel, 48 h
A498 renal = test system: A498 renal
ACHN renal = test system: ACHN renal
BT-549 breast = test system: BT-549 breast
EKVX NSCLC = test system: EKVX NSCLC
HL-60(TB) leukemia = test system: HL-60(TB) leukemia
HOP-62 NSCLC = test system: HOP-62 NSCLC
MDA-MB-231 breast = test system: MDA-MB-231 breast
NCI-H522 lung = test system: NCI-H522 lung
OVCAR-8 ovarian = test system: OVCAR-8 ovarian
PC-3 prostate = test system: PC-3 prostate
SK-MEL-28 melanoma = test system: SK-MEL-28 melanoma

Cc1cccc(C2ON=C(c3ccccc3)N2C23CC4CC(CC(C4)C2)C3)c1 (stereo not drawn)
TGI (A498 renal): > 10 µM
TGI (ACHN renal): > 10 µM
TGI (BT-549 breast): > 10 µM
TGI (EKVX NSCLC): > 10 µM
TGI (HL-60(TB) leukemia): > 10 µM
TGI (HOP-62 NSCLC): > 10 µM
TGI (MDA-MB-231 breast): > 10 µM
TGI (NCI-H522 lung): > 10 µM
TGI (OVCAR-8 ovarian): > 10 µM
TGI (PC-3 prostate): > 10 µM
TGI (SK-MEL-28 melanoma): > 10 µM

Cn1c(=O)c2[nH]c(N=O)nc2n(C)c1=O
TGI (A498 renal): > 100 µM
TGI (BT-549 breast): > 100 µM
TGI (EKVX NSCLC): > 100 µM
TGI (HL-60(TB) leukemia): > 100 µM
TGI (HOP-62 NSCLC): > 100 µM
TGI (MDA-MB-231 breast): > 100 µM
TGI (NCI-H522 lung): > 100 µM
TGI (OVCAR-8 ovarian): > 100 µM
TGI (PC-3 prostate): > 100 µM
TGI (SK-MEL-28 melanoma): > 100 µM

CC(C)OC(=O)c1ccc(NCc2cc(O)ccc2O)cc1
TGI (A498 renal): > 100 µM
TGI (ACHN renal): 13.5 µM
TGI (BT-549 breast): 12.4 µM
TGI (EKVX NSCLC): 17.5 µM
TGI (HL-60(TB) leukemia): 1.62 µM
TGI (HOP-62 NSCLC): 31.9 µM
TGI (MDA-MB-231 breast): 9.59 µM
TGI (NCI-H522 lung): 0.638 µM
TGI (OVCAR-8 ovarian): > 21.9 µM
TGI (PC-3 prostate): 3.99 µM
TGI (SK-MEL-28 melanoma): 29.3 µM

C#CC[C@@H]1C(=O)N(Cc2ccc(OC)cc2)[C@@H](C(C)C)C(=O)N1Cc1ccc(OC)cc1
TGI (A498 renal): > 100 µM
TGI (ACHN renal): > 100 µM
TGI (BT-549 breast): 93.7 µM
TGI (EKVX NSCLC): 69 µM
TGI (HL-60(TB) leukemia): 8.53 µM
TGI (HOP-62 NSCLC): > 100 µM
TGI (MDA-MB-231 breast): > 100 µM
TGI (NCI-H522 lung): 99.5 µM
TGI (OVCAR-8 ovarian): > 100 µM
TGI (PC-3 prostate): > 100 µM
TGI (SK-MEL-28 melanoma): > 100 µM

CO/C(N)=C(\C#N)N=Cc1ccc2ccccc2c1
TGI (A498 renal): > 100 µM
TGI (ACHN renal): > 100 µM
TGI (BT-549 breast): > 100 µM
TGI (EKVX NSCLC): > 100 µM
TGI (HL-60(TB) leukemia): 15.6 µM
TGI (HOP-62 NSCLC): > 100 µM
TGI (MDA-MB-231 breast): > 100 µM
TGI (NCI-H522 lung): > 100 µM
TGI (OVCAR-8 ovarian): > 100 µM
TGI (PC-3 prostate): > 100 µM
TGI (SK-MEL-28 melanoma): > 100 µM

CC(=O)CCCCn1c(=O)c2c(nc(Br)n2C)n(C)c1=O
TGI (A498 renal): > 100 µM
TGI (ACHN renal): > 100 µM
TGI (BT-549 breast): > 100 µM
TGI (EKVX NSCLC): 84.1 µM
TGI (HL-60(TB) leukemia): > 100 µM
TGI (HOP-62 NSCLC): > 100 µM
TGI (MDA-MB-231 breast): > 100 µM
TGI (NCI-H522 lung): 24.9 µM
TGI (OVCAR-8 ovarian): > 100 µM
TGI (PC-3 prostate): > 100 µM
TGI (SK-MEL-28 melanoma): > 100 µM

COc1ccc(C2=Nc3c(nc(OC)[nH]c3=O)NC(c3ccccc3)C2)cc1 (stereo not drawn)
TGI (A498 renal): > 100 µM
TGI (ACHN renal): 83.5 µM
TGI (BT-549 breast): > 100 µM
TGI (EKVX NSCLC): > 100 µM
TGI (HL-60(TB) leukemia): 56.9 µM
TGI (HOP-62 NSCLC): > 100 µM
TGI (MDA-MB-231 breast): 53.4 µM
TGI (NCI-H522 lung): > 100 µM
TGI (OVCAR-8 ovarian): 54.4 µM
TGI (PC-3 prostate): > 100 µM
TGI (SK-MEL-28 melanoma): 42.7 µM

CSc1ncnc2c1cnn2Cc1cnnn1COCC(O)CO (stereo not drawn)
TGI (A498 renal): > 100 µM
TGI (ACHN renal): > 100 µM
TGI (BT-549 breast): > 100 µM
TGI (EKVX NSCLC): > 100 µM
TGI (HL-60(TB) leukemia): > 100 µM
TGI (HOP-62 NSCLC): > 100 µM
TGI (MDA-MB-231 breast): > 100 µM
TGI (NCI-H522 lung): 29 µM
TGI (OVCAR-8 ovarian): > 100 µM
TGI (PC-3 prostate): > 100 µM
TGI (SK-MEL-28 melanoma): > 100 µM

FC(F)(F)c1ccc(C2ON=C(c3ccccc3)N2C23CC4CC(CC(C4)C2)C3)cc1 (stereo not drawn)
TGI (A498 renal): > 10 µM
TGI (ACHN renal): > 10 µM
TGI (BT-549 breast): > 10 µM
TGI (EKVX NSCLC): > 10 µM
TGI (HL-60(TB) leukemia): > 10 µM
TGI (HOP-62 NSCLC): > 10 µM
TGI (MDA-MB-231 breast): > 10 µM
TGI (NCI-H522 lung): > 10 µM
TGI (OVCAR-8 ovarian): > 10 µM
TGI (PC-3 prostate): > 10 µM
TGI (SK-MEL-28 melanoma): > 10 µM

CC1=NN=C(C)C1N=Nc1ccc2nc(C)[nH]c2c1
TGI (A498 renal): 38.2 µM
TGI (ACHN renal): > 76.8 µM
TGI (BT-549 breast): > 100 µM
TGI (EKVX NSCLC): > 71.3 µM
TGI (HL-60(TB) leukemia): > 100 µM
TGI (HOP-62 NSCLC): > 100 µM
TGI (MDA-MB-231 breast): > 88.2 µM
TGI (NCI-H522 lung): > 100 µM
TGI (OVCAR-8 ovarian): > 100 µM
TGI (PC-3 prostate): > 100 µM
TGI (SK-MEL-28 melanoma): > 100 µM

COc1nc(N=P(c2ccccc2)(c2ccccc2)c2ccccc2)cc(=O)n1C
TGI (A498 renal): > 100 µM
TGI (ACHN renal): > 100 µM
TGI (BT-549 breast): > 100 µM
TGI (EKVX NSCLC): > 100 µM
TGI (HL-60(TB) leukemia): > 100 µM
TGI (HOP-62 NSCLC): > 100 µM
TGI (MDA-MB-231 breast): > 100 µM
TGI (NCI-H522 lung): > 100 µM
TGI (OVCAR-8 ovarian): > 100 µM
TGI (PC-3 prostate): > 100 µM
TGI (SK-MEL-28 melanoma): > 100 µM

O=C(O)c1nc2ccccc2nc1Nc1ccc(Cl)c(Cl)c1
TGI (A498 renal): 41.6 µM
TGI (ACHN renal): > 100 µM
TGI (BT-549 breast): 61.4 µM
TGI (EKVX NSCLC): > 100 µM
TGI (HL-60(TB) leukemia): > 100 µM
TGI (HOP-62 NSCLC): 58 µM
TGI (MDA-MB-231 breast): 90 µM
TGI (NCI-H522 lung): 60.1 µM
TGI (OVCAR-8 ovarian): > 100 µM
TGI (PC-3 prostate): > 100 µM
TGI (SK-MEL-28 melanoma): 75 µM

O[C@]12C=C(c3nccc4c3[nH]c3ccccc34)[C@@H]3CCN(CCCC/C=C\CC1)C[C@@]31CC3/C=C\CCCCN3[C@H]12 (stereo partly drawn)
TGI (A498 renal): 2.83 µM
TGI (ACHN renal): 1.05 µM
TGI (BT-549 breast): 10.4 µM
TGI (EKVX NSCLC): 3.57 µM
TGI (HL-60(TB) leukemia): 1.08 µM
TGI (HOP-62 NSCLC): 0.525 µM
TGI (MDA-MB-231 breast): 1.84 µM
TGI (NCI-H522 lung): 2.21 µM
TGI (OVCAR-8 ovarian): 1.51 µM
TGI (PC-3 prostate): 12 µM
TGI (SK-MEL-28 melanoma): 2.76 µM

Nc1nc(NNc2cccc(F)c2)cc(=O)[nH]1
TGI (A498 renal): > 100 µM
TGI (ACHN renal): > 100 µM
TGI (BT-549 breast): > 100 µM
TGI (EKVX NSCLC): > 100 µM
TGI (HL-60(TB) leukemia): 59.3 µM
TGI (HOP-62 NSCLC): 58.5 µM
TGI (MDA-MB-231 breast): > 100 µM
TGI (OVCAR-8 ovarian): > 100 µM
TGI (PC-3 prostate): 59.7 µM
TGI (SK-MEL-28 melanoma): > 100 µM

O=C1Oc2ccccc2C1C/C(=N\Nc1ccccc1)c1ccccc1O (stereo not drawn)
TGI (A498 renal): > 100 µM
TGI (ACHN renal): > 100 µM
TGI (BT-549 breast): > 100 µM
TGI (EKVX NSCLC): > 100 µM
TGI (HL-60(TB) leukemia): > 100 µM
TGI (HOP-62 NSCLC): > 100 µM
TGI (MDA-MB-231 breast): > 100 µM
TGI (NCI-H522 lung): 98 µM
TGI (OVCAR-8 ovarian): > 100 µM
TGI (PC-3 prostate): > 100 µM
TGI (SK-MEL-28 melanoma): > 100 µM

CSc1nc(=S)[nH]c2c1c(C)nn2-c1ccccc1
TGI (A498 renal): 80.6 µM
TGI (ACHN renal): 57.5 µM
TGI (BT-549 breast): > 100 µM
TGI (EKVX NSCLC): 46.6 µM
TGI (HL-60(TB) leukemia): > 100 µM
TGI (HOP-62 NSCLC): > 100 µM
TGI (MDA-MB-231 breast): 64.9 µM
TGI (NCI-H522 lung): 65.4 µM
TGI (PC-3 prostate): 68.3 µM
TGI (SK-MEL-28 melanoma): > 100 µM
